Assay [1] concerns the target T1, GluN1/GluN2D (Rattus norvegicus, UniProt Q62645). Further details: GluN2B (NM_012574.1), GluN2C (NM_012575.3), and GluN2D (NM_022797.2) were provided by; expressed in transfected cells; host or cells: Xenopus laevis oocytes (cRNA injection). The following applies: cited from earlier work.
Assay [2] addresses T1, GluN1/GluN2D. The assay is described as follows: Whole-cell voltage-clamp recordings, HEK cells, GluN1/GluN2D (agonist dependence). The format is cell-based. An excerpt: (§1) We previously described the actions of the GluN2C/GluN2D-preferring negative allosteric modulator DQP-1105 as dependent on glutamate (but not glycine) binding, in that DQP-1105 affinity increases after GluN1/GluN2D NMDARs bind glutamate.[32] […] The concentration-dependent relaxation is indicative of an agonist-induced increase in potency that leads to re-equilibration of the inhibitor after agonist binding induces an increase in inhibitor affinity. We investigated the glutamate dependence of compound 2i (GluN1/GluN2D, Figure 4; GluN1/GluN2C, Figure S2), DQP-1105 (Figure S1), and compound (S)-2a (DQP-69;[33]Figure S3) using the same protocols.
(§2) We preincubated cells with glycine and the inhibitor 2i (DQP-997-74) and compared inhibitor potency during the peak and steady-state current responses to glutamate application. […] To investigate the time course of 2i inhibition, we fitted the relaxation of the current response with a single exponential function. If the current response time course reflects 2i binding, then the reciprocal of τinhibition should be linearly related to its concentration, with the slope equal to kON and intercept equal to kOFF. […] The deactivation of GluN1/GluN2D receptors (5.3 ± 0.2 s) was slowed by the presence of compound 2i when applied at concentrations of 0.1 μM (7.3 ± 0.3 s; p = 0.017) and 0.3 μM (10.5 ± 1.0 s; p = 0.002) but not at 0.03 μM (5.6 ± 0.3 s; p = 0.518; Figure 4E). […] This phenomenon was previously discovered for QNZ-46, a glutamate-dependent GluN2C/2D-selective inhibitor with a different structural core.[42] As proposed in that study, the prolonged deactivation may indicate that 2i slows a conformational change necessary for glutamate unbinding or 2i may need to unbind before glutamate can unbind.
(§3) In addition, we evaluated how glutamate dependence affects inhibition of responses to brief agonist applications similar to phasic glutamate release that occurs at synapses. To do so, we preincubated cells expressing GluN1/GluN2D receptors with the inhibitor 2i and then applied trains of five brief pulses of NMDA (which dissociates more rapidly than glutamate) and glycine from a pressurized micropipette to mimic repetitive synaptic transmission (Figure 4F). We measured the peak amplitude and compared the concentration–response curves for the inhibition of the first and last response (Figure 4G). The initial train of pulses in the absence of drug controls for systematic errors such as internalization of receptors.
(§4) To further evaluate whether 2i followed the law of mass action, we coapplied different concentrations of 2i with glutamate during the steady-state glutamate and glycine responses of GluN1/GluN2D receptors expressed in HEK cells (Figure 4H). […] We also fitted the onset and offset time course of the inhibition produced by compound 2i with a single exponential function (Figure 4J).
(§5) HEK293 cells (HEK, ATCC CRL-1573) were plated on glass coverslips pretreated with 0.1 mg/mL poly-D-lysine and cultured in Dulbecco’s modified Eagle medium (DMEM) plus Glutamax (GIBCO 10569-10) supplemented with 10% fetal bovine serum, 10 U/mL of penicillin, and 10 μg/mL of streptomycin at 37 °C and 5% CO2. The cells were transiently transfected with cDNA encoding rat GluN1, GluN2D, and eGFP at a ratio of 1:1:5 by using the calcium phosphate precipitation method.[48] After 24–48 h following the transfection, the cells were perfused with external recording solution that contained (in mM) 3 KCl, 150 NaCl, 0.01 EDTA, 1.0 CaCl2, 10 HEPES, and 22 D-mannitol (the pH was adjusted to 7.4 with NaOH). The patch electrodes (resistance 3–5 MΩ) were prepared from thin-walled glass micropipettes (TW150F-4, World Precision Instruments, Sarasota, FL) by a dual-stage glass micropipette puller (PC-10, Narishige, Tokyo, Japan) and filled with internal solution containing (in mM) 110 D-gluconate, 110 CsOH, 30 CsCl, 5 HEPES, 4 NaCl, 0.5 CaCl2, 2 MgCl2, 5 BAPTA, 2 NaATP, and 0.3 NaGTP. […]

Assay [3] deals with GluN1/GluN2D (Rattus norvegicus, UniProt P35439+Q62645). The assay is described as above. The class given is cell-based.
From the text: as §1, §2, §3, §4, §5

Another assay concerns Tsc1^± mice. Further details: method as in PMID 25081057. The following applies: 28 mg/kg IP; heterozygote Tsc1^± mice; cited from earlier work.

Where two headings read alike, the source gives them in different places.

T1 sequence (Q62645 28-1323, other chains not shown): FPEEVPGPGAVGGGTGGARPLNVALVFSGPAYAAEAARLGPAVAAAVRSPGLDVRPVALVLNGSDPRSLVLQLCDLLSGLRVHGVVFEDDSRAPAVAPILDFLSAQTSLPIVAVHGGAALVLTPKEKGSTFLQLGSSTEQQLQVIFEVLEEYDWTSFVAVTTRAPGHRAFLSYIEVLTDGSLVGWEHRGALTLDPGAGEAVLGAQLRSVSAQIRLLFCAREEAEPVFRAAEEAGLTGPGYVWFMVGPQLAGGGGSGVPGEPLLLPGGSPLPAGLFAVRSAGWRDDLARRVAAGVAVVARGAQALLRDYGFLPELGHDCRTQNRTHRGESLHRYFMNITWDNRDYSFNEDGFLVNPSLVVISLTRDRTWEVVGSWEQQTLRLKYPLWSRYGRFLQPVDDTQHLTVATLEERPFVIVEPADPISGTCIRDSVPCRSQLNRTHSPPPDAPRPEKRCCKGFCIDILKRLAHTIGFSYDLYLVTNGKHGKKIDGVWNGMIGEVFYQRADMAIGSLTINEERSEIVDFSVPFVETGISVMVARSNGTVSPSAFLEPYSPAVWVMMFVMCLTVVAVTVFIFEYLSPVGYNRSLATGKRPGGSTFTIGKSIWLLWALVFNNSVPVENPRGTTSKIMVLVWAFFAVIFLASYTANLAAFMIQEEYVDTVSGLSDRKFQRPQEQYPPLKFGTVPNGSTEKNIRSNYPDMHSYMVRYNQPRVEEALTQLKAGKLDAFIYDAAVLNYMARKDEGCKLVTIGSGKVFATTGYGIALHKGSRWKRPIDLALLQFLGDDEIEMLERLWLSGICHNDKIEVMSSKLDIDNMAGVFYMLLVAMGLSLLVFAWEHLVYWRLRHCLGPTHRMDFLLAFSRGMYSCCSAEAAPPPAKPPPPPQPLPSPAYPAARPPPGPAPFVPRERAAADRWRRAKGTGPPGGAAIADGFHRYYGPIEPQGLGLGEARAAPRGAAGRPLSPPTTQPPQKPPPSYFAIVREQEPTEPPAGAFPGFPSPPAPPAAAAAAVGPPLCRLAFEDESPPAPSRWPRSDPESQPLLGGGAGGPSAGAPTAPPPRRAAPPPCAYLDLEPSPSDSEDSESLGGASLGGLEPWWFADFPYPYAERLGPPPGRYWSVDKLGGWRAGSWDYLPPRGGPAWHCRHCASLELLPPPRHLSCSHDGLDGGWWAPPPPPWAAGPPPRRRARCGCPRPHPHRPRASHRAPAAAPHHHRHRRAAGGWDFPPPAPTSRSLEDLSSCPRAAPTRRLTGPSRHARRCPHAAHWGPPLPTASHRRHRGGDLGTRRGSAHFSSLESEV
GluN1/GluN2D (Rattus norvegicus, UniProt P35439+Q62645), sequence (Q62645 28-1323, other chains not shown): as above

Regarding `Cc1ccc2[nH]c(=O)c(C3=NN(C(=O)CCC(=O)O)C(c4ccc(Br)cc4)C3)c(-c3ccccc3)c2c1` (centres unmarked) [compound 1, reference compound], the IC50 at GluN1/GluN2D [1] is 2700 nM; on GluN1/GluN2D [3] (fifth of 5 brief NMDA (500 μM)/glycine (250 μM) pulses at 1 s intervals, read-out: IC50 pulse 5 (95% CI)), 1600 nM; on GluN1/GluN2D [3] (first of 5 brief NMDA (500 μM)/glycine (250 μM) pulses at 1 s intervals, read-out: IC50 pulse 1 (95% CI)), 4900 nM; at GluN1/GluN2D [3] (peak current response to glutamate, inhibitor preapplied, read-out: IC50 peak (95% CI)), 1400 nM; on GluN1/GluN2D [3] (steady-state current response to glutamate, inhibitor preapplied, read-out: IC50 steady-state (95% CI)) it was 720 nM. The “τdeactivation following glutamate removal” value at GluN1/GluN2D [2] (0.3 μM compound, mean ± SEM) turned out to be 6.6 ± 0.3 s; at GluN1/GluN2D [2] (1 μM compound, mean ± SEM) it was 6.9 ± 0.4 s; on GluN1/GluN2D [2] (3 μM compound, mean ± SEM), 8.0 ± 0.4 s. Further, the “fold-change in IC50 for the peak and steady-state current responses” value on GluN1/GluN2D [2] (mean ± SEM, compared by ANOVA) is recorded as 2.1 ± 0.2. The “IC50 fold higher during peak compared to steady-state” value on GluN1/GluN2D [2] (ratio of IC50 values) was 1.9 fold. Also, on GluN1/GluN2D [2] (trains of brief agonist applications), the “IC50 fold higher at first pulse compared to fifth pulse” value was found to be 3 fold. In addition, the dissociation rate constant (koff) at GluN1/GluN2D [3] (HEK293, inhibitor preapplied, linear regression of 1/τinhibition vs concentration) was 0.19 s⁻¹. Moreover, at GluN1/GluN2D [3] (inhibitor preapplied, from kON and kOFF, supplement), binding was characterised by a dissociation constant (Kd) of 400 nM. Also, the “effect on seizure burden” value in the assay on Tsc1^± mice is “diminished seizure burden”.

A word on the IC50: it is the concentration that gives 50% inhibition. A word on the koff: it is the rate constant with which the complex falls apart. Low values mean a long-lived complex, high ones a short-lived complex. What is called Kd is the constant that tells how readily two partners part at equilibrium. The low end stands for a tighter complex, the high end for a looser complex.

Source of the values: publication PMC10485906, “Development of a Dihydroquinoline–Pyrazoline GluN2C/2D-Selective Negative Allosteric Modulator of the N-Methyl-D-aspartate Receptor” (ACS Chemical Neuroscience, 2023).
